These results are taken from article PMC8936434 (Frontiers in Pharmacology, 2022).

By GI50 is commonly meant the concentration giving 50% growth inhibition. In general, IC50 refers to the point on the concentration scale where inhibition reaches its midpoint.

Where two headings read alike, the source gives them in different places.

In one data set the test system is SW1573. Description: In vitro P-gp assay: antiproliferative activity in wild-type SW1573 cells. The note with it: Homo sapiens. Format: cell-based. The method, then:
(§1) Compounds were tested against both cell lines in the presence or absence of 10 µM verapamil (a known P-gp and CYP3A4/5 inhibitor).

Data set [1] is described as follows: In vitro P-gp assay: antiproliferative activity in P-gp-overexpressing SW1573/P-gp cells. As to conditions: human. On the procedure:
as §1

Another data set has as its system SW1573/P-gp. Described as above. The note with it: P-gp-overexpressing cells. The method, then: as §1
Data set [2] concerns HepG2 cells. Description: HepG2 cell viability (MTT assay). As to conditions: Homo sapiens, mean ± SD, 3 experiments. Format: cell-based. The method, then: Human hepatoma (HepG2) cells (European Collection of Authenticated Cell Cultures) were cultured in Dulbecco’s modified Eagle’s medium (DMEM) supplemented with 10% heat-inactivated fetal bovine serum (FBS) and 2 mM L-glutamine at 37°C in 5% CO2 humidified atmosphere.
(In general: Tetrazolium dyes change colour on reduction, which living cells bring about.)

The subject of data set [3] is HepG2 cells. Description: LDH release from HepG2 cells. Type of data set: cell-based, Human.
Data set [4] concerns primary rat hepatocytes. Description: Primary rat hepatocyte viability (trypan blue exclusion assay). As to conditions: read-out: IC50, number of viable cells. Format: cell-based.
In data set [5] the test system is primary rat hepatocytes. Description: LDH release from primary rat hepatocytes. Type of data set: cell-based. On the technique in general: Release of lactate dehydrogenase indicates damage to the cell membrane.
Data set [6] has as its system primary rat hepatocytes. The experiment in a line: GSH depletion in isolated rat hepatocytes. Type of data set: cell-based. As to conditions: compared to Dox. On the procedure: Gluthatione (GSH) depletion was evaluated after 24, 48, or 72 h treatment with both anthracyclines. Isolated rat hepatocytes were centrifuged at 400 g for 3 min, and the pellet was used for measuring intracellular GSH by means of the spectrophotometric method based on the conversion of the sulfhydryl reagent 5,5′-dithiobis-(2-nitrobenzoic acid) (DTNB) to the yellow derivative 5′-thio-2-nitrobenzoic acid (TNB) at 412 nm ([Fau et al., 1992]).

In a further data set the target is hERG K+ channel (Kv11.1) (Homo sapiens, UniProt Q12809). The experiment in a line: hERG (Kv11.1) current, whole-cell patch-clamp in hERG-HEK293 cells. Type of data set: cell-based. On the procedure: hERG-HEK293 cells (BPS Bioscience, San Diego, United States), expressing hERG K^+ channel (Kv11.1), were cultured in Minimal Essential Medium (MEM) supplemented with 10% fetal bovine serum, 1% non-essential amino acids, 1% Na pyruvate, 1% penicillin/streptomycin, and 400 μg/ml geneticin ([Lazzerini et al., 2021]).
The bath solution contained (in mM): 136 NaCl, 5.4 KCl, 10 HEPES, 10 D-glucose ∙ H2O, 1 CaCl2 ∙ 2 H2O, 1 MgCl2 ∙ 6 H2O, pH 7.4 with NaOH, whereas the pipette solution consisted of (in mM): 130 KCl, 10 EGTA, 10 HEPES, 5 MgATP, 1 MgCl2 ∙ 6 H2O, pH 7.2 with KOH.
Whole-cell recording was performed as previously described ([Lazzerini et al., 2021]), and a depolarizing step from a holding potential of […] was applied to elicit the Kv11.1 current. Tail current was evoked by repolarizing the cell membrane to −50 mV for 4 s.
Background: hERG is a cardiac potassium channel; its block is linked to QT prolongation.

Another data set concerns zebrafish embryos. Description: Zebrafish embryo toxicity.
Another data set concerns the target recombinant human CYP3A4 (Homo sapiens, UniProt P08684). Description: In vitro inhibition of human CYP3A4.
In data set [7] the test system is primary rat hepatocytes. The experiment in a line: Lipid peroxidation (MDA) in primary rat hepatocytes. The note with it: compared to Dox.
Another data set deals with zebrafish ABCB4. More on the design: method as in earlier work. As to conditions: concentrations up to 100 µM; ref [67]; cited from earlier work.
Setting [8] is: 10 µM applied at 6 hpf, read at 72 hpf.

hERG K+ channel (Kv11.1), sequence (Q12809 whole entry): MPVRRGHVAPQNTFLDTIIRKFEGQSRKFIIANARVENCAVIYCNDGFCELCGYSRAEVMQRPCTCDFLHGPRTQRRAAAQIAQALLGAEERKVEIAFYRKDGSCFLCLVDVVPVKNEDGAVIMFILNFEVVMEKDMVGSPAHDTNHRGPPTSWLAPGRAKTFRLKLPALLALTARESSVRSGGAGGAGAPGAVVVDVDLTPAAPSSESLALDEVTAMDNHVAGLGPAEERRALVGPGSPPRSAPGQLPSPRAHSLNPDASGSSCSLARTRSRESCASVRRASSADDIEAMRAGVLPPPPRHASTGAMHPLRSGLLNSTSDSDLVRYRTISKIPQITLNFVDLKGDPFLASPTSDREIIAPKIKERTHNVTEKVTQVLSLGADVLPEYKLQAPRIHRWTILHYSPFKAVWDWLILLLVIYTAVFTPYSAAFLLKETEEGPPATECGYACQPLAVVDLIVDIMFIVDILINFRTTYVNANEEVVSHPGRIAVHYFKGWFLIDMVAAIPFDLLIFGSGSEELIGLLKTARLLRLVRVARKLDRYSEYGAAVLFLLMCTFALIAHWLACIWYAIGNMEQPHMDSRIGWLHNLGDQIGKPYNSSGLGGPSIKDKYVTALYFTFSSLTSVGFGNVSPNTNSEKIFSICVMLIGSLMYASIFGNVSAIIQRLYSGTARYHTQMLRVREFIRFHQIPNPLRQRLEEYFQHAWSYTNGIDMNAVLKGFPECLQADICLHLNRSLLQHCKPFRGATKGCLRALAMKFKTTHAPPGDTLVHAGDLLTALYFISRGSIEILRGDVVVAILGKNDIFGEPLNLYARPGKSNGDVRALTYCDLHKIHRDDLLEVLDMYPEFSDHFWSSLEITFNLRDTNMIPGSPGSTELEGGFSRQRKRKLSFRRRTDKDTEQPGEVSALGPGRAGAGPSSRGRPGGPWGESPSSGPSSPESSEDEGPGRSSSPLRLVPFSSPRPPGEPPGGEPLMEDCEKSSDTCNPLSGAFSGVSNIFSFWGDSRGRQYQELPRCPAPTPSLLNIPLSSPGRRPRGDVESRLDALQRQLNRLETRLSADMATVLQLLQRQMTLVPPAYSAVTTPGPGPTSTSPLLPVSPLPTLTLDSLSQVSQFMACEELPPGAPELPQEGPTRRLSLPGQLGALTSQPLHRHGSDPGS
recombinant human CYP3A4, sequence (P08684 whole entry): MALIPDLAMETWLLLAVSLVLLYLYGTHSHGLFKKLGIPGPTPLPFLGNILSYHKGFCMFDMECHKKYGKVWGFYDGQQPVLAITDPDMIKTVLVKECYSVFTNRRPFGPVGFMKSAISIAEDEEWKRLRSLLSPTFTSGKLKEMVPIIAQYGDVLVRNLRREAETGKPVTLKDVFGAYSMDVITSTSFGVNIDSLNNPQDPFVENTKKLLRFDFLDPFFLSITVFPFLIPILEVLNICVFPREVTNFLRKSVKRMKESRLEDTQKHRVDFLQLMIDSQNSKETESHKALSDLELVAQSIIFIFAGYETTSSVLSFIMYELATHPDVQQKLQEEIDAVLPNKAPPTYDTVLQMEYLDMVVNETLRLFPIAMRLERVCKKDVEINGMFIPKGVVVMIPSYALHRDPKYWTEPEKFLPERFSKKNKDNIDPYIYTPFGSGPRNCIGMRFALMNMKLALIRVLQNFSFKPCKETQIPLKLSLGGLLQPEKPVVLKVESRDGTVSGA
Procedure for recombinant human CYP3A4: Kinetic assays were carried out in a final volume of 100 µl containing 10 µM substrate, 2.5 nM recombinant CYP3A4, various concentrations of the tested compounds, and 20% NADPH regenerating system in 100 mM Tris–HCl (pH 7.4). Incubations took place in duplicate at 37°C in 96-multiwell plates; fluorescence was measured with a Victor2 plate reader (PerkinElmer Life Sciences, Turku, Finland). The reaction was started by adding NADPH, and fluorescence was measured at 2-min intervals for 40 min using excitation at 405 nm and emission at 460 nm.
Procedure for zebrafish embryos: After 30 min, the eggs were collected, rinsed twice from debris using fresh embryo medium (Instant ocean), and transferred into Petri dishes containing the embryo medium.
Fertilized eggs were selected under a binocular stereomicroscope (PXS-VI, Optica) and transferred into 24-well plates. […] The embryo medium and 0.1% DMSO were used as controls. Treated embryos and controls were then incubated at 28 ± 0.5°C. Each experiment was repeated three times from three independent breedings. In each experiment, at least 3 wells with 12 embryos per treatment per concentration were used.
The zebrafish embryo toxicity assay was performed when fertilization rate was ≥90%. An assay was considered valid if the overall survival of embryos in negative controls was ≥90% until hatching.
All embryos were inspected for morphological characteristics at different developmental stages (48 and 72 hpf) as described by [Kimmel (1989)]. Lethal and teratogenic effects were recorded according to the Organisation for Economic Co-operation and Development (OECD) (236) guidelines for testing of chemicals. Mortality was determined by counting embryos with or without a visible heart beat at 72 hpf. For visual documentation of the malformations and heartbeat, embryos were imaged and recorded using a camera connected to the microscope (CKX41; Olympus, Tokyo, Japan). Each heartbeat was manually counted for 20 s and multiplied by 3 to calculate heart rate (beat/minute) ([Hoage et al., 2012]). At least three embryos per group were recorded and their heart beat counted.

As to `COc1cc2c(c(OC)c1OC)-c1ccc(OC)c(=O)cc1[C@@H](NC(C)=O)CC2` [Colchicine, colchicine], the GI50 in the data set on SW1573 (SW1573, 48 h) came to 67 ± 15 nM. In data set [1], this molecule registered a GI50 at 48 h of 2370 nM.

Turning to `COc1cccc2c1C(=O)c1c(O)c3c(c(O)c1C2=O)C[C@@](O)(C(=O)COC(=O)c1ccc(-c2ssc(=S)c2-c2ccccc2)cc1)C[C@@H]3O[C@H]1C[C@H](N)[C@H](O)[C@H](C)O1` [Sdox, 2-((2S,4S)-4-(((2R,4S,5S,6S)-4-amino-5-hydroxy-6-methyltetrahydro-2H-pyran-2-yl)oxy)-2,5,12-trihydroxy-7-methoxy-6,11-dioxo-1,2,3,4,6,11-hexahydrotetracen-2-yl)-2-oxoethyl 4-(4-phenyl-3-thioxo-3H-1,2-dithiol-5-yl)benzoate], the GI50 in the data set on SW1573 (SW1573, 48 h) was found to be 873 ± 410 nM; in data set [1], 3020 nM. Moreover, the “Times less affected by P-gp compared with parent compound Dox” value with SW1573/P-gp is listed as “ca. 6.5 times”. The IC50 stood at 8690 ± 310 nM in the data set on HepG2 cells [2] (24 h); 3210 ± 160 nM in the data set on HepG2 cells [2] (48 h); 1390 ± 30 nM in the data set with HepG2 cells [2] (72 h); 16500 ± 1010 nM with primary rat hepatocytes [4]; 3100 nM at recombinant human CYP3A4. Besides, the “Concentration at which LDH release was increased” value in the data set on HepG2 cells [3] (HepG2, 24 and 48 h of treatment, only at the maximum concentration tested) worked out at 10 µM. Moreover, the “Lowest concentration at which LDH release was increased” value in the data set on HepG2 cells [3] (HepG2, 72 h of treatment) worked out at 4 µM. Further, the “Release of LDH” value in the data set with primary rat hepatocytes [5] is recorded as “increased the release of LDH in a concentration-dependent manner”. Also, the “Reduced GSH” value in the data set on primary rat hepatocytes [6] is recorded as “lower decrease in the reduced GSH”. The “Effect on hERG currents” value at hERG K+ channel (Kv11.1) (up to 10 μM) is given as “did not affect”. Besides, the “Effect on number of live embryos” value in the data set with zebrafish embryos (setting [8]) is “ineffective”. The Embryos alive with zebrafish embryos (setting [8]) is ~90%. Besides, in the data set with zebrafish embryos (10 µM, 72 hpf), the Developmental toxicity entry is listed as “did not display developmental toxicity”. Further, the “Concentration above which a precipitate was observed” value in the data set on zebrafish embryos (zebrafish embryo medium) is > 10 µM. Moreover, the “MDA levels (index of lipid peroxidation)” value with primary rat hepatocytes [7] was “lower increase in the MDA levels”.

As to `CC(=O)O[C@H]1C(=O)[C@@]2(C)[C@H]([C@H](OC(=O)c3ccccc3)[C@]3(O)C[C@H](OC(=O)[C@H](O)[C@@H](NC(=O)c4ccccc4)c4ccccc4)C(C)=C1C3(C)C)[C@]1(OC(C)=O)CO[C@@H]1C[C@@H]2O` [Paclitaxel, paclitaxel], in the data set on SW1573 (SW1573, 48 h), the GI50 was determined as 0.53 ± 0.22 nM. In data set [1], this molecule gave a GI50 at 48 h of 298 ± 113 nM.

As to `CC[C@]1(O)C[C@H]2CN(CCc3c([nH]c4ccccc34)[C@@](C(=O)OC)(c3cc4c(cc3OC)N(C=O)[C@H]3[C@@](O)(C(=O)OC)[C@H](OC(C)=O)[C@]5(CC)C=CCN6CC[C@]43[C@@H]65)C2)C1` [Vincristine, vincristine], the GI50 in the data set with SW1573 (SW1573, w/o verapamil, 48 h exposure, mean ± SD (n = 3–5), read-out: GI50) came out at 3.9 ± 1.5 nM. The GI50 at 48 h in data set [1] (SW1573/P-gp cells (P-gp-overexpressing variant of SW1573)) stood at 86 ± 15 nM.

In turn, `COc1cccc2c1C(=O)c1c(O)c3c(c(O)c1C2=O)C[C@@](O)(C(=O)CO)C[C@@H]3O[C@H]1C[C@H](N)[C@H](O)[C@H](C)O1` [Dox, doxorubicin] returned a GI50 in the data set on SW1573 (SW1573, 48 h) of 70 ± 8.6 nM. The molecule further registered a GI50 at 48 h in data set [1] of 1600 nM. Moreover, the IC50 in the data set on HepG2 cells [2] (24 h) was found to be 6110 ± 660 nM; in the data set with HepG2 cells [2] (48 h), 460 ± 30 nM; with HepG2 cells [2] (72 h), 190 ± 10 nM; in the data set with primary rat hepatocytes [4], 9680 ± 890 nM. For the same molecule, the “LDH release (cytotoxicity) compared with Sdox” value with HepG2 cells [3] (HepG2, regardless of timing of exposure (24, 48, 72 h)) is “cytotoxic at concentrations lower than those of Sdox”. Further, the “Release of LDH” value in the data set on primary rat hepatocytes [5] is recorded as “increased the release of LDH in a concentration-dependent manner”. For the same molecule, the “Effect on hERG currents” value on hERG K+ channel (Kv11.1) (up to 100 μM) is on record as “did not affect”. Besides, in the data set with zebrafish ABCB4, the “Effect on zebrafish ABCB4 ATPase activity” value was “no major effect”.

With `CC[C@]1(O)C[C@@H]2CN(CCc3c([nH]c4ccccc34)[C@@](C(=O)OC)(c3cc4c(cc3OC)N(C)[C@H]3[C@@](O)(C(=O)OC)[C@H](OC(C)=O)[C@]5(CC)C=CCN6CC[C@]43[C@@H]65)C2)C1` [Vinblastine, vinblastine], growth with SW1573 (SW1573, 48 h) was halved (GI50) at 0.94 ± 0.35 nM. Further, growth in data set [1] was halved (GI50 at 48 h) at 16 ± 4.7 nM.
